Assay results: patent US12215460B2, “Methods of microbial control” (Clean Chemistry, Inc., priority 2015, dated 2025)
Where two headings read alike, the source gives them in different places.

Columns and labels:
[1] = Bleaching of Kraft pulp, hand sheet tests
[2] = TOX formation tests in pulp bleaching
Method: […]. The pulp slurry was put into a 1 L glass beaker in a heated water bath. The beakers were fitted with liquid-tight covers to minimize evaporative losses of water and oxidants. After the pulp slurry was heated the oxidant solution and additional salt water was added to make a final composition of about 855 g water, 45.0 g of air-dry pulp, 8.55 g NaCl and the oxidant. The oxidant was mixed into the pulp slurry thoroughly with a stainless steel spatula for several minutes and then mixed periodically throughout the 2 hour bleaching period. The pH of the slurry was left at the natural pH created by each oxidant in the presence of the pulp.
The amount of oxidant used in each test was enough to partially bleach the amount of lignin present so that the oxidant was the limiting reagent. When peracetate oxidant was combined with Kraft pulp the evolution of some gas was observed accompanied by rapid bleaching that was clearly visible within the first few minutes. […]. After 2 hours at 50° C. the pulp slurries were vacuum filtered through a Buchner funnel over a medium porosity filter paper. There was no residual oxidant present in the filtrates. The four filtrate solutions recovered were put into amber glass bottles and preserved with sulfuric acid for total organic halide analyses, which were conducted by a third party laboratory.

[3] = Thermal activation in clean water at pH 8.5 and 50 C; assay type: physicochemical; settings: distilled water
microbes = assay: Microbial control in water at slightly alkaline pH, oxidant comparison; assay type: cell-based
Excerpt: In some embodiments, microbial control in water at slightly alkaline pH was compared between peracetate oxidant, […] bleach, peracetic acid and […] dioxide. Alkaline pH is encountered in a variety of applications where microbial control and sanitization is needed, including pulp and paper processing, cooling towers, water treatment and chill tanks in poultry processing. […].

[4] = flowback water, 22 C, pH 6.5; initial 80 mg/L (peracetate as PAA; PAA with 112 mg/L H2O2)
ORP of oxidants at pH 7 = assay type: physicochemical; settings: 29 mM
[5] = Entry 8, 30 min, 4.0 g/L, initial pH 8.0
[6] = Entry 9, 30 min, 4.0 g/L, initial pH 8.9
[7] = Entry 2, bleach time 30 min, 1.13 g/L PAA equiv., initial pH 8.2

CC(=O)OO [peracetic acid]
Final ORP ([1]; Entry 7, 30 min, 4.0 g/L, initial pH 7.0): 502 mV vs SHE
Final pH ([1]; Entry 7, 30 min, 4.0 g/L, initial pH 7.0, stock 11.4% PAA and 15.6% H2O2): 7.0
Final ORP [1, 5]: 406 mV vs SHE
Final pH [1, 5]: 8.0
Final ORP [1, 6]: 253 mV vs SHE
Final pH [1, 6]: 8.8
Normalized TOX ([2]; Kraft pulp 5% consistency, 1.0% NaCl, 50 C, 2 hours): 4.5 mg/L per 1000 mg/L oxidant
TOX ([2]; Kraft pulp 5% consistency, 1.0% NaCl, 50 C, 2 hours, initial 4000 mg/L peracetate (as PAA equivalents), 4000 PAA + 5400 H2O2, 1000 ClO2, blank 0.68): 17.8 mg/L
time peracetic acid and hydrogen peroxide concentrations were stable [3]: about 90 minutes
ORP ([3]; constant during the test): around 280 mV vs SHE
performance as antimicrobial disinfectant (microbes): lowest performance
TOX [4]: BDL (BDL = below detection limit, less than 0.05 mg/L)

OO [hydrogen peroxide]
ORP (ORP of oxidants at pH 7): about 0.5 V (vs SHE)

sodium peracetate [peracetate oxidant]
total organic halides (TOX) relative to chlorine dioxide [2]: about ten times less

[O][Cl+][O-] [chlorine dioxide]
Final ORP [1, 7]: 896 mV vs SHE
Final pH [1, 7]: 6.4
Normalized TOX [2]: 17.7 mg/L per 1000 mg/L oxidant
TOX [2]: 17.7 mg/L
performance as antimicrobial disinfectant (microbes): performed well

OCl [hypochlorous acid]
ORP (ORP of oxidants at pH 7): over 1.1 V (vs SHE)
